Laboratory results from article PMC9604400, “Synthesis, Anticancer and Antitubercular Properties of New Chalcones and Their Nitrogen-Containing Five-Membered Heterocyclic Hybrids Bearing Sulfonamide Moiety” (International Journal of Molecular Sciences, 2022).

Assays:
ACHN = assay: NCI-60 screen (SRB), renal cancer; settings: Homo sapiens
M14 = assay: NCI-60 screen (SRB), melanoma; settings: Homo sapiens
SK-MEL-2 = assay: NCI-60 screen (SRB), melanoma; settings: Homo sapiens
NCI-H460 = assay: NCI-60 screen (SRB), non-small cell lung cancer
OVCAR-3 = assay: NCI-60 screen (SRB), ovarian cancer; settings: Homo sapiens
MDA-MB-468 = assay: NCI-60 screen (SRB), breast cancer
HT29 = assay: NCI-60 screen (SRB), colon cancer; settings: Homo sapiens
RPMI-8226 = assay: NCI-60 screen (SRB), leukemia; settings: Homo sapiens
SN12C = assay: NCI-60 screen (SRB), renal cancer; settings: Homo sapiens
A549/ATCC = assay: NCI-60 screen (SRB), non-small cell lung cancer; settings: Homo sapiens
SF-539 = assay: NCI-60 screen (SRB), CNS cancer; settings: Homo sapiens
786-0 = assay: NCI-60 screen (SRB), renal cancer; settings: Homo sapiens
IGROV1 = assay: NCI-60 screen (SRB), ovarian cancer; settings: Homo sapiens
SF-268 = assay: NCI-60 screen (SRB), CNS cancer; settings: Homo sapiens
BT-549 = assay: NCI-60 screen (SRB), breast cancer; settings: Homo sapiens
PC-3 = assay: NCI-60 screen (SRB), prostate cancer; settings: Homo sapiens
breast cancer cell lines = assay: NCI-60 screen (SRB), breast cancer panel; assay type: cell-based; settings: Homo sapiens, single dose 10 μM, read-out: GI (growth inhibition), range over panel
HCC-2998 = assay: NCI-60 screen (SRB), colon cancer; settings: Homo sapiens
LOX IMVI = assay: NCI-60 screen (SRB), melanoma; settings: Homo sapiens
RXF 393 = assay: NCI-60 screen (SRB), renal cancer
OVCAR-8 = assay: NCI-60 screen (SRB), ovarian cancer; settings: Homo sapiens
UACC-62 = assay: NCI-60 screen (SRB), melanoma; settings: Homo sapiens
NCI-H522 = assay: NCI-60 screen (SRB), non-small cell lung cancer; settings: Homo sapiens
T-47D = assay: NCI-60 screen (SRB), breast cancer; settings: Homo sapiens, T47D
SK-MEL-5 = assay: NCI-60 screen (SRB), melanoma; settings: Homo sapiens
MALME-3M = assay: NCI-60 screen (SRB), melanoma; settings: Homo sapiens
OVCAR-4 = assay: NCI-60 screen (SRB), ovarian cancer; settings: Homo sapiens
UO-31 = assay: NCI-60 screen (SRB), renal cancer; settings: Homo sapiens
K-562 = assay: NCI-60 screen (SRB), leukemia; settings: Homo sapiens
SR = assay: NCI-60 screen (SRB), leukemia; settings: Homo sapiens
MOLT-4 = assay: NCI-60 screen (SRB), leukemia; settings: Homo sapiens
NCI-H226 = assay: NCI-60 screen (SRB), non-small cell lung cancer; settings: Homo sapiens
colon cancer cell lines = assay: NCI-60 screen (SRB), colon cancer panel; assay type: cell-based; settings: Homo sapiens, single dose 10 μM, read-out: GI (growth inhibition), range over panel

SMILES: COc1cc(OC)c(S(N)(=O)=O)cc1C(=O)/C=C/c1ccc(C)cc1 [Compound 17c, (E)-2,4-Dimethoxy-5-(3-(p-tolyl)acryloyl)benzenesulfonamide]
- IC50 (ACHN): 3.86 µM
- CC50 (ACHN; read-out: LC50): 37.3 µM
- IC50 (M14; M14): 3.25 µM
- CC50 (M14; M14, read-out: LC50): 56 µM
- IC50 (SK-MEL-2; SK-MEL-2): 11.5 µM
- CC50 (SK-MEL-2; SK-MEL-2, read-out: LC50): 55.7 µM
- IC50 (NCI-H460; Homo sapiens, NCI-H460): 2.24 µM
- CC50 (NCI-H460; Homo sapiens, NCI-H460, read-out: LC50): 44.3 µM
- lethality (NCI-H460; NCI-H460, single dose 10 μM): 3.51%
- IC50 (OVCAR-3; OVCAR-3): 3.05 µM
- CC50 (OVCAR-3; OVCAR-3, read-out: LC50): > 100 µM
- IC50 (MDA-MB-468; Homo sapiens, MDA-MB-468): 1.96 µM
- CC50 (MDA-MB-468; Homo sapiens, MDA-MB-468, read-out: LC50): 54.3 µM
- lethality (MDA-MB-468; MDA-MB-468, single dose 10 μM): 36.18%
- IC50 (HT29; HT-29): 3.5 µM
- CC50 (HT29; HT-29, read-out: LC50): 64.7 µM
- IC50 (RPMI-8226; RPMI-8226): 3.2 µM
- CC50 (RPMI-8226; RPMI-8226, read-out: LC50): > 100 µM
- IC50 (SN12C): 2.95 µM
- CC50 (SN12C; read-out: LC50): 38.8 µM
- IC50 (A549/ATCC; A549): 2.75 µM
- CC50 (A549/ATCC; A549, read-out: LC50): 34.8 µM
- IC50 (SF-539; SF-539): 2.17 µM
- CC50 (SF-539; SF-539, read-out: LC50): 14.4 µM
- IC50 (786-0; 786-0): 3.85 µM
- CC50 (786-0; 786-0, read-out: LC50): > 100 µM
- IC50 (IGROV1; IGROV-1): 3.56 µM
- CC50 (IGROV1; IGROV-1, read-out: LC50): 72.4 µM
- IC50 (SF-268; SF-268): 3.2 µM
- CC50 (SF-268; SF-268, read-out: LC50): > 100 µM
- IC50 (BT-549; BT-549): 2.18 µM
- CC50 (BT-549; BT-549, read-out: LC50): 31.6 µM
- IC50 (PC-3; PC-3): 3.42 µM
- CC50 (PC-3; PC-3, read-out: LC50): 55.1 µM
- inhibition at 10 µM (breast cancer cell lines): 78.7 to 100%
- IC50 (HCC-2998; HCC 2998): 2.39 µM
- CC50 (HCC-2998; HCC 2998, read-out: LC50): 22.3 µM
- IC50 (LOX IMVI): 0.54 µM
- CC50 (LOX IMVI; read-out: LC50): 76.2 µM
- IC50 (RXF 393; Homo sapiens, RXF 393): 2.24 µM
- CC50 (RXF 393; Homo sapiens, RXF 393, read-out: LC50): 28.8 µM
- lethality (RXF 393; RXF 393, single dose 10 μM): 28.21%
- IC50 (OVCAR-8; OVCAR-8): 2.17 µM
- CC50 (OVCAR-8; OVCAR-8, read-out: LC50): 15.8 µM
- IC50 (UACC-62; UACC-62): 3.63 µM
- CC50 (UACC-62; UACC-62, read-out: LC50): 46.2 µM
- IC50 (NCI-H522; NCI-H522): 2.48 µM
- CC50 (NCI-H522; NCI-H522, read-out: LC50): 32.5 µM
- IC50 (T-47D): 2.32 µM
- CC50 (T-47D; read-out: LC50): 44.8 µM
- IC50 (SK-MEL-5; SK-MEL-5): 7.81 µM
- CC50 (SK-MEL-5; SK-MEL-5, read-out: LC50): 49.4 µM
- IC50 (MALME-3M): 8.55 µM
- CC50 (MALME-3M; read-out: LC50): 59.5 µM
- IC50 (OVCAR-4; OVCAR-4): 3.66 µM
- CC50 (OVCAR-4; OVCAR-4, read-out: LC50): 53.2 µM
- IC50 (UO-31; UO-31): 3.46 µM
- CC50 (UO-31; UO-31, read-out: LC50): 38.1 µM
- IC50 (K-562; K562): 2.43 µM
- CC50 (K-562; K562, read-out: LC50): > 100 µM
- IC50 (SR): 2.26 µM
- CC50 (SR; read-out: LC50): > 100 µM
- IC50 (MOLT-4; MOLT-4): 3.07 µM
- CC50 (MOLT-4; MOLT-4, read-out: LC50): > 100 µM
- IC50 (NCI-H226; NCI-H226): 4.14 µM
- CC50 (NCI-H226; NCI-H226, read-out: LC50): 90.8 µM
- inhibition at 10 µM (colon cancer cell lines): 83 to 100%
